Data published in PMC4841544, “Molecular Basis of Ligand-Dependent Regulation of NadR, the Transcriptional Repressor of Meningococcal Virulence Factor NadA” (PLoS Pathogens, 2016).

How the values were obtained:
Assay type in all cases: binding
[1] = target: T1, NadR (Neisseria adhesin A Regulator) (Neisseria meningitidis, UniProt Q7DD70); assay: SPR steady-state; DSC (ΔTm […] °C); design: gene NMB1843; NadR residues M1-S146, His-tag removed by thrombin (149 residues)
[2] = target: T1, NadR (Neisseria adhesin A Regulator); assay: SPR steady-state; DSC (ΔTm […] °C); design: gene NMB1843; NadR residues M1-S146, His-tag removed by thrombin (149 residues); remark: listed apart in the source
[3] = target: T1, NadR (Neisseria adhesin A Regulator); assay: SPR steady-state; DSC; 1H-15N TROSY-HSQC NMR; design: gene NMB1843; NadR residues M1-S146, His-tag removed by thrombin (149 residues); SeMet derivative for the crystal

T1 sequence (Q7DD70 entry or part of it): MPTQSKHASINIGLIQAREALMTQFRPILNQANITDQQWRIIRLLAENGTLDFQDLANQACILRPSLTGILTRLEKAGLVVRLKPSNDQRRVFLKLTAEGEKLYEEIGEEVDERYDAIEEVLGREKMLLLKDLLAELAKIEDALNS

Question: Which Kd [1] does the source give for `O=C(O)Cc1cccc(O)c1` [3-HPA] here?
Answer: The Kd was 2700 ± 100 µM.

Question: For `O=C(O)Cc1ccc(O)c(Cl)c1` [3Cl,4-HPA], which Kd [2] is on record?
Answer: Its Kd is 1100 ± 100 µM.

Question: `O=C(O)Cc1ccc(O)cc1` [4-HPA, 4-hydroxyphenylacetate] was tested. Which Kd [3] did it give?
Answer: Its Kd is 1500 ± 100 µM.
